# Source: patent US20020137929A1, “1 - (3-heterocyclylphenyl) isothiourea, -isourea, -guanidine and -amidine herbicidal agents” (Intellectual Property Department, BASF Aktiengesellschaft, priority 1998, published 2002)
# Experiments:
# [1] = tested on: TRZAWR (Wheat, Winter, cv Riband); experiment: Postemergence herbicidal evaluation; assay type: in vivo, Triticum aestivum; conditions: postemergence
# How it was run: (§1)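 Seedlings grown about two weeks were sprayed at 40 psi with compound dispersed in 50/50 acetone/water plus 0.5% TWEEN 20, at about 0.0156 to 0.500 kg/ha. Plants were kept in the greenhouse and scored 4–5 weeks later on a 0–9 visual scale against untreated controls.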
# [2] = tested on: AMBEL (Ragweed, Common); experiment: Postemergence herbicidal evaluation; assay type: in vivo, Ambrosia artemisifolia; conditions: postemergence
# How it was run: as §1
# [3] = tested on: SAGPY (Arrowhead (Pygmaea)); experiment: Preemergence weed control under flooded paddy conditions; assay type: in vivo, Sagittaria pygmaea; conditions: rated 3-4 weeks after treatment
# How it was run: (§2)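 Greenhouse paddy assay. Acetone/water (50/50 v/v) solutions dosed into flood water, equivalent to about 0.0313 to 0.500 kg/ha active ingredient, over seeds planted 0.5 cm deep in silt loam. Score: 0-9 visual, based on stand, vigor, malformation, size and chlorosis, 3 to 4 weeks after treatment.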
# [4] = tested on: ECHORC (Watergrass (Calif.)); experiment: Postemergence weed control under flooded paddy conditions; assay type: in vivo, Echinochloa oryzoides; conditions: postemergence weeds, rated 3 to 4 weeks after treatment
# How it was run: (§3)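 Herbicidal effect is judged by eye on a 0–9 scale versus control, 3–4 weeks after dosing. Dosing is into flood water kept 1.5–3 cm over the soil, at about 0.0313–0.500 kg/ha in aqueous/acetone 50/50 v/v, on 3–5 cm weeds and 1.5–2.5-leaf rice seedlings.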
# [5] = tested on: CASOB (Sicklepod); experiment: Postemergence herbicidal evaluation; assay type: in vivo, Cassia obtusifolia; conditions: postemergence
# How it was run: as §1
# [6] = tested on: CYPSE (Flatsedge); experiment: Preemergence weed control under flooded paddy conditions; assay type: in vivo, Cyperus serotinus; conditions: rated 3-4 weeks after treatment
# How it was run: as §2
# [7] = tested on: GALAP (Galium); experiment: Postemergence herbicidal evaluation; assay type: in vivo, Galium aparine; conditions: postemergence
# How it was run: as §1
# [8] = tested on: MOOVA (Monochoria); experiment: Preemergence weed control under flooded paddy conditions; assay type: in vivo, Monochoria vaginalis; conditions: rated 3-4 weeks after treatment
# How it was run: as §2
# [9] = tested on: SETVI (Foxtail, Green); experiment: Preemergence herbicidal evaluation; assay type: in vivo, Setaria viridis; conditions: preemergence, rated 4-5 weeks after treatment, 0-9 scale
# How it was run: (§4)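 Steps: mix seeds into potting soil; plant atop ~1 inch soil; spray compound in aqueous acetone (~0.0156-0.500 kg/ha equivalent); maintain in greenhouse with watering; rate visually 0-9 versus control at 4-5 weeks.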
# [10] = tested on: SAGPY (Arrowhead (Pygmaea)); experiment: Postemergence weed control under flooded paddy conditions; assay type: in vivo, Sagittaria pygmaea; conditions: postemergence weeds, rated 3 to 4 weeks after treatment
# How it was run: as §3
# [11] = tested on: GALAP (Galium); experiment: Preemergence herbicidal evaluation; assay type: in vivo, Galium aparine; conditions: preemergence, rated 4-5 weeks after treatment, 0-9 scale
# How it was run: as §4
# [12] = tested on: ECHORC (Watergrass (Calif.)); experiment: Preemergence weed control under flooded paddy conditions; assay type: in vivo, Echinochloa oryzoides; conditions: rated 3-4 weeks after treatment
# How it was run: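 Herbicidal effect is scored visually on a 0-9 scale against an untreated control, three to four weeks after compounds are pipetted into the flood water (1.5 to 3 cm deep) over seeds planted in silt loam at 0.5 cm depth. Rates: about 0.0313 to 0.500 kg/ha.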
# [13] = tested on: ORYSAT (Rice, Tebonnet); experiment: Preemergence herbicidal evaluation; assay type: in vivo, Oryza sativa, (L.) Tebonnet; conditions: preemergence, rated 4-5 weeks after treatment, 0-9 scale
# How it was run: as §4
# [14] = tested on: GLXMAW (Soybean, Williams); experiment: Postemergence herbicidal evaluation; assay type: in vivo, Glycine max, (L.) Merr. cv Williams; conditions: postemergence
# How it was run: as §1
smiles,measurement,setting,value
CCOC(=O)CN1C(=O)C(CC(=O)OC(C)C(=O)OCC)S/C1=N/c1cc(-n2c(=O)cc(C(F)(F)F)n(C)c2=O)c(F)cc1Cl (stereo not shown) [Compound 87],TRZAWR herbicidal rating,[1]; rate 0.0156 kg/ha,2.5
same,TRZAWR herbicidal rating,[1]; rate 0.0313 kg/ha,3.0
same,TRZAWR herbicidal rating,[1]; rate 0.0625 kg/ha,4.5
same,TRZAWR herbicidal rating,[1]; rate 0.1250 kg/ha,4.5
same,TRZAWR herbicidal rating,[1]; rate 0.2500 kg/ha,6.0
same,AMBEL herbicidal rating,[2]; rate 0.0156 kg/ha,0.0
same,AMBEL herbicidal rating,[2]; rate 0.0313 kg/ha,4.0
same,AMBEL herbicidal rating,[2]; rate 0.0625 kg/ha,7.0
same,AMBEL herbicidal rating,[2]; rate 0.1250 kg/ha,9.0
same,AMBEL herbicidal rating,[2]; rate 0.2500 kg/ha,9.0
same,SAGPY herbicidal effect rating,[3]; 0.0313 kg/ha,0.0
same,SAGPY herbicidal effect rating,[3]; 0.0625 kg/ha,4.0
same,SAGPY herbicidal effect rating,[3]; 0.1250 kg/ha,4.0
same,SAGPY herbicidal effect rating,[3]; 0.2500 kg/ha,5.0
same,SAGPY herbicidal effect rating,[3]; 0.5000 kg/ha,7.0
same,Herbicidal rating ECHORC,[4]; Rate 0.0313 kg/ha,0.0
same,Herbicidal rating ECHORC,[4]; Rate 0.0625 kg/ha,0.0
same,Herbicidal rating ECHORC,[4]; Rate 0.1250 kg/ha,2.0
same,Herbicidal rating ECHORC,[4]; Rate 0.2500 kg/ha,3.0
same,Herbicidal rating ECHORC,[4]; Rate 0.5000 kg/ha,3.0
same,CASOB herbicidal rating,[5]; rate 0.0156 kg/ha,0.0
same,CASOB herbicidal rating,[5]; rate 0.0313 kg/ha,0.0
same,CASOB herbicidal rating,[5]; rate 0.0625 kg/ha,0.0
same,CASOB herbicidal rating,[5]; rate 0.1250 kg/ha,2.0
same,CASOB herbicidal rating,[5]; rate 0.2500 kg/ha,9.0
same,CYPSE herbicidal effect rating,[6]; 0.0313 kg/ha,0.0
same,CYPSE herbicidal effect rating,[6]; 0.0625 kg/ha,0.0
same,CYPSE herbicidal effect rating,[6]; 0.1250 kg/ha,5.0
same,CYPSE herbicidal effect rating,[6]; 0.2500 kg/ha,5.0
same,CYPSE herbicidal effect rating,[6]; 0.5000 kg/ha,5.0
same,GALAP herbicidal rating,[7]; rate 0.0156 kg/ha,0.0
same,GALAP herbicidal rating,[7]; rate 0.0313 kg/ha,0.0
same,GALAP herbicidal rating,[7]; rate 0.0625 kg/ha,1.0
same,GALAP herbicidal rating,[7]; rate 0.1250 kg/ha,1.0
same,GALAP herbicidal rating,[7]; rate 0.2500 kg/ha,3.0
same,MOOVA herbicidal effect rating,[8]; 0.0313 kg/ha,9.0
same,MOOVA herbicidal effect rating,[8]; 0.0625 kg/ha,9.0
same,MOOVA herbicidal effect rating,[8]; 0.1250 kg/ha,9.0
same,MOOVA herbicidal effect rating,[8]; 0.2500 kg/ha,9.0
same,MOOVA herbicidal effect rating,[8]; 0.5000 kg/ha,9.0
same,SETVI rating,[9]; 0.1250 kg/ha,0.0
same,SETVI rating,[9]; 0.2500 kg/ha,0.0
same,SETVI rating,[9]; 0.5000 kg/ha,9.0
same,Herbicidal rating SAGPY,[10]; Rate 0.0313 kg/ha,0.0
same,Herbicidal rating SAGPY,[10]; Rate 0.0625 kg/ha,4.0
same,Herbicidal rating SAGPY,[10]; Rate 0.1250 kg/ha,4.0
same,Herbicidal rating SAGPY,[10]; Rate 0.2500 kg/ha,5.0
same,Herbicidal rating SAGPY,[10]; Rate 0.5000 kg/ha,7.0
same,GALAP rating,[11]; 0.1250 kg/ha,0.0
same,GALAP rating,[11]; 0.2500 kg/ha,0.0
same,GALAP rating,[11]; 0.5000 kg/ha,7.0
same,ECHORC herbicidal effect rating,[12]; 0.0313 kg/ha,0.0
same,ECHORC herbicidal effect rating,[12]; 0.0625 kg/ha,0.0
same,ECHORC herbicidal effect rating,[12]; 0.1250 kg/ha,2.0
same,ECHORC herbicidal effect rating,[12]; 0.2500 kg/ha,3.0
same,ECHORC herbicidal effect rating,[12]; 0.5000 kg/ha,3.0
same,ORYSAT rating,[13]; 0.1250 kg/ha,0.0
same,ORYSAT rating,[13]; 0.2500 kg/ha,0.0
same,ORYSAT rating,[13]; 0.5000 kg/ha,0.0
same,GLXMAW herbicidal rating,[14]; rate 0.0156 kg/ha,4.5
same,GLXMAW herbicidal rating,[14]; rate 0.0313 kg/ha,5.5
same,GLXMAW herbicidal rating,[14]; rate 0.0625 kg/ha,7.5
same,GLXMAW herbicidal rating,[14]; rate 0.1250 kg/ha,8.0
same,GLXMAW herbicidal rating,[14]; rate 0.2500 kg/ha,9.0
